# Experimental data from patent US4866176A, “8-Piperazinyl-1,7-naphthyridine derivative having pharmaceutical activity” (SS Pharmaceutical Co., Ltd., priority 1986, dated 1989).
# Assays:
# [1] = tested on: Edema; test: Antiinflammatory effect (carragenin-induced edema of rat foot, oral); assay type: in vivo, Wister rats; details: 30 mg/kg, carragenin 60 min after dosing, foot volume 3 hours thereafter
# Experimental: Wister rats (age 6 weeks), 5 of which consisted one group, were fasted for 18 hours and orally given a test compound which was dissolved or suspended in a 0.5% sodium carboxymethylcellulose (CMC-Na). Sixty (60) minutes after administration of the tested compound each rat was subcutaneously given 0.1 ml of 1% carragenin physiological saline at its right plantar, and 3 hours thereafter the volume of its foot (A) was measured. The rate of edematization was determined by the formula [(A-B)/B]×100, in which (A) is the thus-obtained volume of animals foot and (B) denots the corresponding volume before administration of the compound (B).
# The rate of edematization of controls which were subcutaneously given 0.1 ml of 1% carragenin physiological saline at their right plantars was also determined in the same manner. The rate of edema inhibition was determined on each of the tested compounds according to the following equation: [formula]
# The results are shown in Table 1, in which the compound numbers correspond those of Examples appearing hereinafter in this specification.
# [2] = tested on: heart rate; test: Antiarrhythmic effect (chloroform, mice, ip); assay type: in vivo; details: positive = 1-200 per minute heart rate
# Experimental: Mice, age 5 weeks and weighing approximately 25 g, 6 of which consisted one group, were given a test compound which was dissolved in a 0.01 N-0.1 N hydrochloric acid solution (ip). Ten (10) minutes thereafter the mice were put into a sealed container which was filled with chloroform, their chests were incised promptly after confirming the respiratory arrest, and the heart rate was counted. Those with a 1-200 per minute heart rate were judged as positive in their antiarrhythmic effect.
# [3] = tested on: right and left atrium muscles; test: Cardiotonic effect (positive inotropic effect on isolated guinea pig atrium muscles); set-up: species or system Hartley male guinea pigs; details: Cavia porcellus, 10^-5 g/ml, 32° C, maximum change of contractive force, read-out: Positive Inotropic Effect (% per the value obtained on controls)
# Experimental: Hearts of Hartley male guinea pigs, weighing 500-800 g, were taken out and their atrium muscles were enucleated in Krebs - hydrogencarbonate solution, to serve the same as samples for the test. The both ends of right and left atrium muscles with a spontaneous beat were fixed by means of Serres fines, and suspended, with their upper and lower portions being fixed, in a bath containing 20 ml of Krebs - hydrogencarbonate solution which was aerated by 95% O2 +5% CO2 at 32° C. Then contractive forces of the spontaneous beat were isometrically measured. After the samples were stabilized, the test compound dissolved in 1 N hydrochloric acid solution and diluted by physiological saline to a concentration of 10^-5 g/ml was charged into the bath. Maximum changes (%) of the contractive force after charging the test compound per the value obtained immediately before the charge were determined. The values obtained, which respresent a positive inotropic effect, were made a standard for the cardiotonic effect.
SMILES,Edema Inhibition Rate (%) [1],Animals exhibited positive antiarrhythmic/Animals tested ([2]; 12.5 mg/kg),Animals exhibited positive antiarrhythmic/Animals tested ([2]; 25.0 mg/kg),activation at 10 µg/mL [3]
"CC(=O)Nc1cc2cccnc2c(N2CCNCC2)n1 [Compound No. 1, 6-acetamido-8-(1-piperazinyl)-1,7-naphthyridine]",64.8%,5/6,4/6,
CC(=O)Nc1cc2cccnc2c(N2CCN(C=O)CC2)n1 [compound 2],35.0%,,,35.8%
CC(=O)Nc1cc2cccnc2c(N2CCN(C(C)=O)CC2)n1 [compound 3],,,,35.6%
CC(=O)Nc1cc2cccnc2c(N2CCN(C(=O)c3ccccc3)CC2)n1 [compound 4],,2/6,4/6,
"CC(=O)Nc1cc2cccnc2c(N2CCN(C(=O)c3ccc([N+](=O)[O-])cc3)CC2)n1 [compound 8, 6-acetamido-8-[4-(p-nitrobenzoyl)-1-piperazinyl]-1,7-naphthyridine]",28.6%,,,
COc1ccc(C(=O)N2CCN(c3nc(NC(C)=O)cc4cccnc34)CC2)cc1 [compound 9],30.4%,,,
COc1ccc(C(=O)N2CCN(c3nc(NC(C)=O)cc4cccnc34)CC2)cc1OC [compound 10],,,,16.7%
COc1cc(C(=O)N2CCN(c3nc(NC(C)=O)cc4cccnc34)CC2)cc(OC)c1OC [compound 11],,1/6,6/6,
CC(=O)Nc1cc2cccnc2c(N2CCN(c3cccc(Cl)c3)CC2)n1 [compound 15],,4/6,4/6,
CC(=O)Nc1cc2cccnc2c(N2CCN(c3ccc(F)cc3)CC2)n1 [compound 17],,3/6,5/6,
CC(=O)Nc1cc2cccnc2c(N2CCN(Cc3ccccc3)CC2)n1 [compound 22],57.1%,,,16.7%
